Results published in patent publication US4130637A, “Anti-plaque agents” (Colgate-Palmolive Company, priority 1977, dated 1978).
Where a name gives a salt, the structure may show the parent alone.

Key:
[1] = In vivo stain formation test on beagles (oral spray); set-up: species or system Beagle dogs
Excerpt: This treatment was continued daily for 7 weeks. […] Score results range from 0 to 4:
1 stain present covering one-fourth of tooth surface;
2 stain present covering one-half of tooth surface;
3 stain present covering three-fourths of tooth surface;
4 stain present covering entire tooth surface.
(§1) The animals used in these studies were registered Beagle dogs 6 to 8 months of age, weighing 8 to 10 kilos. The animals were kept in good health and had not received any treatment for at least three weeks prior to the start of a study. They were anaesthesized (Na-Nembutal 25-30 mgs/kg) and received a complete dental prophylaxis. Disclosing solution (TRACE, Erythrosine, Lorvic St. Louis, Mo. U.S.A.) was used to insure the complete removal of soft and hard dental deposits. The dogs receive this diet exclusively -- ground Purina Dog Chow soaked in water for at least two hours to form a soft mush. In addition, each animal receives approximately one-half can of ground beef (no chunks). No hard substances were permitted for the duration of the study. The animals were treated once daily with the test solutions (approx. 6 to 9 ml.) using a gentle spray over all surfaces of dentition. Treatments continued at least five days per week for the duration of the experiment. Each animal was examined weekly for plaque, and stain. Photographs were taken by the examining investigator immediately after the prophylaxis and at every examination. Before starting with the plaque study, the groups were balanced with respect to plaque formation.

[2] = In vivo plaque test on beagles (disclosing solution); set-up: species or system Beagle dogs; details: for PLAQUE Mean Score: Table II, score 1-4, 20 teeth per beagle, placebo 2.19, benzethonium chloride at .075%; for PLAQUE % Diff.: versus placebo, Signif. printed: 50/50 mixture N.S., 90% betaine 95%, Hibitane 95%, .075% benzethonium chloride 99%
Excerpt: as §1, with “The animals were kept in good health and had not received any treatment for at least three weeks prior to the start of a study.” left out

Strep. sanguis = assay: Minimum inhibitory concentration, test tube serial dilution test; assay type: cell-based; details: Streptococcus, Gram Positive
Description: (§2) The antimicrobial nature of the instant novel nontoxic compounds was shown by a standard test tube serial dilution test in which an appropriate number of test tubes of broth containing decreasing concentration of the test agent was innoculated with the test organism (0.1% in 95% ethyl alcohol). After a suitable period of incubation, the tubes were examined for the presence or absence of growth. The activity of the test agent was the lowest concentration which inhibited the growth of the organism and is expressed as the minimal inhibitory concentration in μgm/ml.

A. niger = assay: as above; assay type: cell-based; details: Aspergillus niger, mold
Description: as §2

E. Coli = assay: as above; assay type: cell-based; details: Escherichia coli, Gram Negative
Description: as §2

Ps. aeruginosa = assay: as above; assay type: cell-based; details: Pseudomonas aeruginosa, Gram Negative
Description: as §2

C. albicans = assay: as above; assay type: cell-based; details: Candida albicans, yeast
Description: as §2

Strep. mutans = assay: as above; assay type: cell-based; details: Streptococcus mutans, Gram Positive
Description: as §2

Staphylococcus aureus = assay: as above; assay type: cell-based; details: S. aureus, Gram Positive
Description: as §2

T. ment. = assay: as above; assay type: cell-based, Trichophyton mentogrophytes; details: Trichophyton, mold
Description: as §2

A. naeslundi = assay: as above; assay type: cell-based, Actinomycetis naeslundii; details: Actinomyces naeslundii, Gram Positive
Description: as §2

bacteria = details: Stedman et al. 1953; cited from earlier work
micro-organisms [3] = assay: Antimicrobial activity (general statements); assay type: cell-based
Description: as §2, with “μgm/ml. As shown in the following table of anitmicrobial data, the betaines of this invention are active against a variety of micro-organisms with maximum activity when the higher alkyl group has 14-16 carbons.” for “μgm/ml.”

micro-organisms [4] = details: reported by Swain et al. and Stedman et al.; cited from earlier work
[5] = Staining of teeth / oral surfaces (general statements); assay type: in vivo; details: under use conditions

SMILES: CC(C)(C)CC(C)(C)c1ccc(OCCOCC[N+](C)(C)Cc2ccccc2)cc1 [Benzethonium Chloride, benzethonium chloride]
- Mean Stain Result ([1]; 0.1% aqueous solution, daily spray, 7 weeks, 10 dogs, score 0-4, deionized water 0.07): 0.59
- increase in staining ([1]; 0.1% solution, 7 weeks, versus deionized water): 742%
- No. of dogs w. Stain ([1]; Table II, dogs with stain/dogs tested, placebo 1/8, benzethonium chloride at .075%): 3/7
- Mean Stain Score ([1]; Table II, score 0-4, placebo 0.388, benzethonium chloride at .075%): 0.53
- PLAQUE Mean Score [2]: 1.80
- PLAQUE % Diff. [2]: -25.0%

SMILES: CCCCCCCCCCCC[N+](C)(C)CCCCCCCCCCC(=O)O [C12 H25 [RN^+ (CH3)2 (CH2)10 COOH] Pr^-]
- MIC (Strep. sanguis): 12.5 µg/mL
- MIC (A. niger): 50 µg/mL
- MIC (E. Coli): 100 µg/mL
- MIC (Ps. aeruginosa): 50 µg/mL
- MIC (C. albicans): 25 µg/mL
- MIC (Strep. mutans): 12.5 µg/mL
- MIC (Staphylococcus aureus): 6.25 µg/mL
- MIC (T. ment.): 12.5 µg/mL
- MIC (A. naeslundi): 12.5 µg/mL

SMILES: CCCCCCCCCCCCCC[N+](C)(C)CCCCCCCCCCC(=O)[O-] [C14 H29 RN^+ CH3)2 (CH2)10 COOH, N-(10-Carboxydecyl)-N, N-dimethyltetradecanaminium hydroxide, inner salt]
- MIC (Strep. sanguis): 1.56 µg/mL
- MIC (A. niger): 50 µg/mL
- MIC (E. Coli): 100 µg/mL
- MIC (Ps. aeruginosa): 100 µg/mL
- MIC (C. albicans): 3.12 µg/mL
- MIC (Strep. mutans): 1.56 µg/mL
- MIC (Staphylococcus aureus): 1.56 µg/mL
- MIC (T. ment.): 0.78 µg/mL
- MIC (A. naeslundi): 0.39 µg/mL

SMILES: CCCCCCCCCCCCCC[N+](C)(C)CCCCCCCCCCC(=O)O.[Br-] [C14 H29 [RN^+ (CH3)2 (CH2)10 COOH] Pr^-, tetradecyldimethyl(10-carboxydecyl)-ammonium bromide]
- MIC (Strep. sanguis): 1.56 µg/mL
- MIC (A. niger): 25 µg/mL
- MIC (E. Coli): 100 µg/mL
- MIC (Ps. aeruginosa): 50 µg/mL
- MIC (C. albicans): 3.12 µg/mL
- MIC (Strep. mutans): 1.56 µg/mL
- MIC (Staphylococcus aureus): 0.39 µg/mL
- MIC (T. ment.): 3.12 µg/mL
- MIC (A. naeslundi): 0.39 µg/mL

SMILES: CCCCCCCCCCCCCCCC[N+](C)(C)CC(=O)[O-] [C16 H33 N^+ (CH3)2 CH2 COO^-]
- bactericidal activity relative to related non-betaine [C16 H33 N(CH3)2 CH2 C6 H5 ]Cl (bacteria): less than one-tenth

SMILES: CCCCCCCCCCCCCCCC[N+](C)(C)CCCCCCCCCCC(=O)[O-] [C16 H33 RN^+ CH3)2 (CH2)10 COOH, N-(10-Carboxydecyl)-N,N-dimethylhexadecanaminium hydroxide, inner salt]
- MIC (Strep. sanguis): 0.78 µg/mL
- MIC (A. niger): 100 µg/mL
- MIC (E. Coli): 100 µg/mL
- MIC (Ps. aeruginosa): 100 µg/mL
- MIC (C. albicans): 3.12 µg/mL
- MIC (Strep. mutans): 1.56 µg/mL
- MIC (Staphylococcus aureus): 1.56 µg/mL
- MIC (T. ment.): 1.56 µg/mL
- MIC (A. naeslundi): 0.78 µg/mL
- antimicrobial activity (micro-organisms [3]): the activity is not diminished and is sufficient for the exhibition of useful antimicrobial and anti-plaque properties

SMILES: CCCCCCCCCCCCCCCC[N+](C)(C)CCCCCCCCCCC(=O)O.[Br-] [C16 H33 [RN^+ (CH3)2 (CH2)10 COOH] Pr^-, Hexadecyldimethyl(10-carboxydecyl)ammonium bromide]
- MIC (Strep. sanguis): 1.56 µg/mL
- MIC (A. niger): 50 µg/mL
- MIC (E. Coli): 100 µg/mL
- MIC (Ps. aeruginosa): 50 µg/mL
- MIC (C. albicans): 3.12 µg/mL
- MIC (Strep. mutans): 1.56 µg/mL
- MIC (Staphylococcus aureus): 0.39 µg/mL
- antimicrobial properties (micro-organisms [4]): reported to have antimicrobial properties
- MIC (T. ment.): 12.5 µg/mL
- MIC (A. naeslundi): 0.78 µg/mL

SMILES: [H]/N=C(\N/C(=N/[H])NCCCCCCNC(=N)NC(=N)Nc1ccc(Cl)cc1)Nc1ccc(Cl)cc1 [Hibitane, Chlorhexidine]
- Mean Stain Score ([1]; dog, in vivo): 0.956
- No. of dogs w. Stain ([1]; dog, in vivo): 8/8
- degree of staining ([1]; dog, in vivo): significantly increased staining
- PLAQUE Mean Score [2]: 1.32
- PLAQUE % Diff. [2]: -39.7%
- staining / discoloration [5]: noticeable discolorations
